Tested on: 966289-007-R4-J1-PDC complex spheroid viability
Assay: Anticancer human tumor 966289-007-R4-J1-PDC patient-derived pancreatic adenocarcinoma cell line growth inhibition [RAS]
Settings: for IC50: curve of first compound; for viability, T/C: stronger effect = lower value
In short: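 Tumour cells grown as complex spheroids with HUVEC endothelial cells and mesenchymal stem cells, treated with RAS pathway inhibitor combinations. Each agent spans half-log steps from near clinical Cmax, or 10 microM where Cmax is unknown.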

[1] = second compound 0.000949 µM, first compound 0.0316 µM
[2] = second compound 0.000949 µM, first compound 0.1 µM
[3] = second compound 0.000949 µM, first compound 0.316 µM
[4] = second compound 0.000949 µM, first compound 1 µM
[5] = second compound 0.000949 µM, first compound 3.16 µM
[6] = second compound 0.000949 µM, first compound 10 µM
[7] = second compound 0.003 µM, first compound 0.0316 µM
[8] = second compound 0.003 µM, first compound 0.1 µM
[9] = second compound 0.003 µM, first compound 0.316 µM
[10] = second compound 0.003 µM, first compound 1 µM
[11] = second compound 0.003 µM, first compound 3.16 µM
[12] = second compound 0.003 µM, first compound 10 µM
[13] = second compound 0.00949 µM, first compound 0.0316 µM
[14] = second compound 0.00949 µM, first compound 0.1 µM
[15] = second compound 0.00949 µM, first compound 0.316 µM
[16] = second compound 0.00949 µM, first compound 1 µM
[17] = second compound 0.00949 µM, first compound 3.16 µM
[18] = second compound 0.00949 µM, first compound 10 µM
[19] = second compound 0.03 µM, first compound 0.0316 µM
[20] = second compound 0.03 µM, first compound 0.1 µM
[21] = second compound 0.03 µM, first compound 0.316 µM
[22] = second compound 0.03 µM, first compound 1 µM
[23] = second compound 0.03 µM, first compound 3.16 µM
[24] = second compound 0.03 µM, first compound 10 µM
[25] = second compound 0.0949 µM, first compound 0.0316 µM
[26] = second compound 0.0949 µM, first compound 0.1 µM
[27] = second compound 0.0949 µM, first compound 0.316 µM
[28] = second compound 0.0949 µM, first compound 1 µM
[29] = second compound 0.0949 µM, first compound 3.16 µM
[30] = second compound 0.0949 µM, first compound 10 µM
[31] = second compound 0.3 µM, first compound 0.0316 µM
[32] = second compound 0.3 µM, first compound 0.1 µM
[33] = second compound 0.3 µM, first compound 0.316 µM
[34] = second compound 0.3 µM, first compound 1 µM
[35] = second compound 0.3 µM, first compound 3.16 µM
[36] = second compound 0.3 µM, first compound 10 µM
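Also: spheroids exposed to agents for one week before readout.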
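For viability, T/C in this document: percent viability relative to DMSO vehicle control wells as 100%.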

In the case of CC(C)NCC(C(=O)N1CCN(c2ncnc3c2C(C)CC3O)CC1)c1ccc(Cl)cc1 (stereo not drawn) + CCn1c(-c2cc(N3CCN(C)CC3)cnc2C(C)OC)c2c3cc(ccc31)-c1csc(n1)CC(NC(=O)C1CC1C)C(=O)N1CCCC(N1)C(=O)OCC(C)(C)C2, the IC50 (second compound 0.000949 µM) is reported as 5.85 µM, the IC50 (second compound 0.003 µM) is reported as 4.53 µM and the IC50 (second compound 0.00949 µM) is reported as 5.06 µM. The IC50 (second compound 0.03 µM) was 4.79 µM, the IC50 (second compound 0.0949 µM) was 2.99 µM and the IC50 (second compound 0.3 µM) was 4.07 µM. It also gave a viability, T/C [1] of 115%, a viability, T/C [2] of 76.5% and a viability, T/C [3] of 119%. For the same compound, the viability, T/C [4] was 83.1%, the viability, T/C [5] was 68.4% and the viability, T/C [6] was 35.2%. The viability, T/C [7] was 106%, the viability, T/C [8] was 92.5% and the viability, T/C [9] was 91.8%. It also gave a viability, T/C [10] of 95.3%, a viability, T/C [11] of 58.1% and a viability, T/C [12] of 32.2%. It also gave a viability, T/C [13] of 85.5%, a viability, T/C [14] of 98.6% and a viability, T/C [15] of 103%. The viability, T/C [16] was 97.2%, the viability, T/C [17] was 61.3% and the viability, T/C [18] was 33.6%. For the same compound, the viability, T/C [19] was 75.1%, the viability, T/C [20] was 97.4% and the viability, T/C [21] was 99.2%. It also gave a viability, T/C [22] of 97.6%, a viability, T/C [23] of 61.6% and a viability, T/C [24] of 29.4%. It also gave a viability, T/C [25] of 77.1%, a viability, T/C [26] of 90.7% and a viability, T/C [27] of 113%. For the same compound, the viability, T/C [28] was 92.7%, the viability, T/C [29] was 47.9% and the viability, T/C [30] was 27.3%. For the same compound, the viability, T/C [31] was 83.7%, the viability, T/C [32] was 102% and the viability, T/C [33] was 112%. For the same compound, the viability, T/C [34] was 98.3%, the viability, T/C [35] was 57.4% and the viability, T/C [36] was 23.8%.

CC(C)n1nc(-c2ccc3oc(N)nc3c2)c2c(N)ncnc21 + CCn1c(-c2cc(N3CCN(C)CC3)cnc2C(C)OC)c2c3cc(ccc31)-c1csc(n1)CC(NC(=O)C1CC1C)C(=O)N1CCCC(N1)C(=O)OCC(C)(C)C2 gave an IC50 (second compound 0.000949 µM) of 0.0281 µM, an IC50 (second compound 0.003 µM) of 0.0325 µM and an IC50 (second compound 0.00949 µM) of 0.0307 µM. The IC50 (second compound 0.03 µM) was 0.0256 µM, the IC50 (second compound 0.0949 µM) was 0.0261 µM and the IC50 (second compound 0.3 µM) was 0.0254 µM. The viability, T/C (second compound 0.000949 µM, first compound 0.000316 µM) was 89.3%, the viability, T/C (second compound 0.000949 µM, first compound 0.001 µM) was 116% and the viability, T/C (second compound 0.000949 µM, first compound 0.00316 µM) was 133%. For the same compound, the viability, T/C (second compound 0.000949 µM, first compound 0.01 µM) was 78.5%, the viability, T/C [1] was 50.5% and the viability, T/C [2] was 16.2%. It also gave a viability, T/C (second compound 0.003 µM, first compound 0.000316 µM) of 83.3%, a viability, T/C (second compound 0.003 µM, first compound 0.001 µM) of 128% and a viability, T/C (second compound 0.003 µM, first compound 0.00316 µM) of 93.6%. For the same compound, the viability, T/C (second compound 0.003 µM, first compound 0.01 µM) was 108%, the viability, T/C [7] was 50.6% and the viability, T/C [8] was 18.5%. For the same compound, the viability, T/C (second compound 0.00949 µM, first compound 0.000316 µM) was 105%, the viability, T/C (second compound 0.00949 µM, first compound 0.001 µM) was 108% and the viability, T/C (second compound 0.00949 µM, first compound 0.00316 µM) was 107%. For the same compound, the viability, T/C (second compound 0.00949 µM, first compound 0.01 µM) was 108%, the viability, T/C [13] was 48.5% and the viability, T/C [14] was 15.2%. The viability, T/C (second compound 0.03 µM, first compound 0.000316 µM) was 107%, the viability, T/C (second compound 0.03 µM, first compound 0.001 µM) was 90.8% and the viability, T/C (second compound 0.03 µM, first compound 0.00316 µM) was 108%. It also gave a viability, T/C (second compound 0.03 µM, first compound 0.01 µM) of 106%, a viability, T/C [19] of 38.1% and a viability, T/C [20] of 17.4%. It also gave a viability, T/C (second compound 0.0949 µM, first compound 0.000316 µM) of 98%, a viability, T/C (second compound 0.0949 µM, first compound 0.001 µM) of 117% and a viability, T/C (second compound 0.0949 µM, first compound 0.00316 µM) of 106%. For the same compound, the viability, T/C (second compound 0.0949 µM, first compound 0.01 µM) was 112%, the viability, T/C [25] was 38.4% and the viability, T/C [26] was 14.7%. For the same compound, the viability, T/C (second compound 0.3 µM, first compound 0.000316 µM) was 91.8%, the viability, T/C (second compound 0.3 µM, first compound 0.001 µM) was 107% and the viability, T/C (second compound 0.3 µM, first compound 0.00316 µM) was 112%. For the same compound, the viability, T/C (second compound 0.3 µM, first compound 0.01 µM) was 87.1%, the viability, T/C [31] was 41.6% and the viability, T/C [32] was 16.6%.

For CC(Nc1ccc2c(c1)OCCn1cc(N3C(=O)OCC3C(F)F)nc1-2)C(N)=O (stereo not drawn) + CCn1c(-c2cc(N3CCN(C)CC3)cnc2C(C)OC)c2c3cc(ccc31)-c1csc(n1)CC(NC(=O)C1CC1C)C(=O)N1CCCC(N1)C(=O)OCC(C)(C)C2, the IC50 (second compound 0.000949 µM) was > 10 µM, the IC50 (second compound 0.003 µM) was > 10 µM and the IC50 (second compound 0.00949 µM) was > 10 µM. The IC50 (second compound 0.03 µM) was > 10 µM, the IC50 (second compound 0.0949 µM) was > 10 µM and the IC50 (second compound 0.3 µM) was > 10 µM. It also gave a viability, T/C [1] of 126%, a viability, T/C [2] of 124% and a viability, T/C [3] of 105%. It also gave a viability, T/C [4] of 92.2%, a viability, T/C [5] of 110% and a viability, T/C [6] of 103%. The viability, T/C [7] was 115%, the viability, T/C [8] was 104% and the viability, T/C [9] was 108%. For the same compound, the viability, T/C [10] was 83.7%, the viability, T/C [11] was 96.8% and the viability, T/C [12] was 99.3%. For the same compound, the viability, T/C [13] was 123%, the viability, T/C [14] was 113% and the viability, T/C [15] was 104%. The viability, T/C [16] was 96%, the viability, T/C [17] was 111% and the viability, T/C [18] was 95.2%. It also gave a viability, T/C [19] of 84.6%, a viability, T/C [20] of 97% and a viability, T/C [21] of 133%. The viability, T/C [22] was 92.2%, the viability, T/C [23] was 122% and the viability, T/C [24] was 95%. For the same compound, the viability, T/C [25] was 91.6%, the viability, T/C [26] was 119% and the viability, T/C [27] was 104%. The viability, T/C [28] was 101%, the viability, T/C [29] was 114% and the viability, T/C [30] was 88.4%. For the same compound, the viability, T/C [31] was 121%, the viability, T/C [32] was 108% and the viability, T/C [33] was 90.3%. It also gave a viability, T/C [34] of 94.5%, a viability, T/C [35] of 123% and a viability, T/C [36] of 92%.

In the case of C[C@@H](NC(=O)c1ncnc(N)c1Cl)c1ncc(C(=O)Nc2cc(C(F)(F)F)c(Cl)cn2)s1 + CCn1c(-c2cc(N3CCN(C)CC3)cnc2C(C)OC)c2c3cc(ccc31)-c1csc(n1)CC(NC(=O)C1CC1C)C(=O)N1CCCC(N1)C(=O)OCC(C)(C)C2, the IC50 (second compound 0.000949 µM) is reported as > 10 µM, the IC50 (second compound 0.003 µM) is reported as > 10 µM and the IC50 (second compound 0.00949 µM) is reported as > 10 µM. For the same compound, the IC50 (second compound 0.03 µM) was > 10 µM, the IC50 (second compound 0.0949 µM) was > 10 µM and the IC50 (second compound 0.3 µM) was > 10 µM. It also gave a viability, T/C [1] of 125%, a viability, T/C [2] of 120% and a viability, T/C [3] of 91.1%. The viability, T/C [4] was 73%, the viability, T/C [5] was 73.8% and the viability, T/C [6] was 103%. For the same compound, the viability, T/C [7] was 94.6%, the viability, T/C [8] was 113% and the viability, T/C [9] was 102%. The viability, T/C [10] was 85.1%, the viability, T/C [11] was 97% and the viability, T/C [12] was 84.2%. It also gave a viability, T/C [13] of 97.3%, a viability, T/C [14] of 116% and a viability, T/C [15] of 95.3%. It also gave a viability, T/C [16] of 69%, a viability, T/C [17] of 103% and a viability, T/C [18] of 110%. The viability, T/C [19] was 79.2%, the viability, T/C [20] was 77.2% and the viability, T/C [21] was 118%. The viability, T/C [22] was 123%, the viability, T/C [23] was 117% and the viability, T/C [24] was 82%. For the same compound, the viability, T/C [25] was 76.6%, the viability, T/C [26] was 88.3% and the viability, T/C [27] was 119%. It also gave a viability, T/C [28] of 105%, a viability, T/C [29] of 111% and a viability, T/C [30] of 150%. The viability, T/C [31] was 60.5%, the viability, T/C [32] was 101% and the viability, T/C [33] was 130%. For the same compound, the viability, T/C [34] was 141%, the viability, T/C [35] was 116% and the viability, T/C [36] was 107%.

Source: PubChem BioAssay AID2060897 (Molecular Pharmacology Branch, DTP, NCI, 2025)
